Measured values published in ChEMBL document CHEMBL1141583, “Chemotherapeutic bone-targeted bisphosphonate prodrugs with hydrolytic mode of activation” (Bioorg Med Chem Lett, 2008).

What was measured:
[1] = Chemical stability in phosphate buffer saline at pH 7.4; format: physicochemical
[2] = tested on: Jurkat; test: Growth inhibition of human Jurkat cells after 96 hrs; format: functional, cell-based

| SMILES | half-life [1] [h] | IC50 [2] [nM] |
| --- | --- | --- |
| COc1cc(COC(=O)NC(Cc2c[nH]c3ccccc23)C(=O)O)cc(OC)c1OC(=O)OCCCCCCC(P(=O)(O)O)P(=O)(O)O (stereo not drawn) [TRYPDRONATE] | 90 |  |
| CC[C@@]1(O)C(=O)OCc2c1cc1n(c2=O)Cc2cc3ccccc3nc2-1 [CAMPTOTHECIN] |  | 1.4 |
| CC[C@@]1(OC(=O)CCC(P(=O)(O)O)P(=O)(O)O)C(=O)OCc2c1cc1n(c2=O)Cc2cc3ccccc3nc2-1 [CAMDRONATE] |  | 21 |
